According to patent US8404746B2, “Anti-diabetes composition containing chicoric acid and/or one of the metabolites thereof” (Centre National de la Recherche Scientifique (CNRS), priority 2006, dated 2013):

Test system: L6 rat myocyte cell line
Test: [3H]-deoxyglucose uptake in the L6 rat myocyte cell line with or without insulin (Example 5, FIG. 5)
Type: cell-based
Settings: insulin at 100 nM alone, p<0.001
Description: The L6 line (a line from the skeletal muscle of Rattus norvegicus provided by ATCC-LCC Promochem) was used. Glucose uptake in the presence of insulin with or without SAT2 was quantified using [^3H]-deoxyglucose. The L6 cell line is cultivated in DMEM (4.5 g/l glucose) supplemented with 10% fetal calf serum (FCS). For the glucose uptake experiments, the cells are inoculated in 12-well plates at a density of 10^4 cells/well. After three days of culture, the cells are differentiated in DMEM with 2% FCS for one week. The day of the experiment, the cells are deprived for 4 hours in DMEM without FCS and containing 0.1% BSA, and then they are incubated for 1 hour in a Krebs-Ringer buffer containing 1 g/l glucose and containing […] insulin with or without SAT2 at a concentration of 50 μg/ml or 100 μg/ml. The cells are then washed in Krebs-Ringer and then incubated in the presence of 0.5 μCi [^3H]-deoxyglucose in 1 ml Krebs-Ringer per well. Glucose uptake by the L6 cells is stopped by three washings in cold PBS and the cells are then lysed in 1 ml of a 0.1 N NaOH solution. Concentration in total protein is estimated by the Bradford method and radioactivity is measured using a β counter. The final results are expressed in cpm/mg/min. […] The effects on glucose uptake are measured in the presence of [^3H]-deoxyglucose for 5 minutes. […]

With Insulin the “increase in glucose capture” value was 30.4%.
